From patent US20230234917A1, “ASPARAGINE DERIVATIVES AND METHODS OF USING SAME” (priority 2020, published 2023)

Experiments:
[1] = biological target: T1, ClbP (Escherichia coli, UniProt Q0P7K6); assay: ClbP whole cell activity (inhibition) assay, fluorogenic substrate; format: cell-based, E. coli
Procedure: Whole Cell Activity Assay
(§1) 1) E. coli ClbP+ were taken from a frozen stock and streaked onto BHI plates. They were grown aerobically at 37° C. overnight in the incubator.
(§2) 1) A single colony was selected from the plate and inoculated into 30 mL LB in a 50 mL conical vial eight times (240 mL total). The bacteria were grown aerobically overnight (16-20 h) at 37° C. on a nutator with rocking.
1) The saturated overnight culture was centrifuged to create a firm pellet (3,200 g, 10 min, 4° C.). In a biosafety cabinet, the supernatant was removed and then the pellet was resuspended in 30 mL sterile PBS.
2) The bacteria were centrifuged again (3,200 g, 10 min, 4° C.). The supernatant was removed, and the pellet was resuspended in sterile PBS buffer (6 mL) in each of the 8 tubes. This fivefold concentrated bacterial solution was the working solution.
3) The bacterial working solution (192 μL) was mixed with inhibitor (6 μL, final concentration was 300, 100, 33.3, 11.1, 3.7, 1.2, 0.4, or 0 μM). Fluorogenic substrate (2 μL, final concentration 5 μM) was immediately added across the plate to initiate the reaction. As a control, each plate contained Compound No. III in this dose response curve. The bacterial concentration was fivefold concentrated compared to the original saturated overnight culture. Carryover from DMSO was 4% (v/v). All compounds were tested in singlicate.
(§3) 4) The plate was loaded into a spectrophotometer preheated to 37° C. The fluorescence was recorded every 2 min for 46 min. The excitation wavelength was 360 nm (20 nm bandwidth), the emission wavelength was 460 nm (20 nm bandwidth), the optics position was bottom, the gain was 65, the light source was a tungsten bulb, and the read speed was normal.
(§4) 5) The linear portion of the fluorescence increase was 10-30 min. The rate of fluorescence increase (A.U./min) for each well in an inhibitor series was normalized to the 0 μM inhibitor condition. The normalized activity as a function of inhibitor concentration was then fit to a three parameter IC50 curve in Graphpad Prism.
(§5) “A” indicates an IC50 value less than 100 μM, “B” indicates an IC50 between 100 and 300 μM, “C” indicates an IC50 above 300 μM.

[2] = biological target: Full-length WT ClbP (Escherichia coli, UniProt Q0P7K6); assay: ClbP molecular (purified protein) enzymatic inhibition assay, fluorogenic substrate; format: biochemical, E. coli
Procedure: ClbP Molecular (Purified Protein) Assay
1) Full-length WT ClbP was thawed on ice. A diluted enzyme solution (2 nM) was made by mixing 3.57 μL of enzyme with 20 mL of reaction buffer (50 mM Tris pH 8.0, 200 mM NaCl, 0.02% (w/v) n-dodecyl-b-D-maltoside (DDM)).
2) In a 96 well plate, the diluted protein solution (73.5 μL) was mixed with inhibitor (1.5 μL, of varying concentrations, see below) and preincubated for 15 min at room temperature. Then, reaction buffer (75 μL) containing 10 μM fluorogenic substrate was added to initiate the reaction. After addition of substrate, the final concentrations were 1 nM full-length WT ClbP, 5 μM fluorogenic substrate in 50 mM Tris pH 8.0, 200 mM NaCl, 0.02% (w/v) DDM, with either 0, 0.14, 0.41, 1.2, 3.7, 11, 33, or 100 μM inhibitor. For all conditions, the DMSO carryover was 2% (v/v) at the preincubation stage and 1% in the reaction stage. Compound No. III was always present as a control in each plate, and all compounds were tested in singlicate. In previous assays, the Km of the fluorogenic substrate was determined to be approximately 5 μM.
3) Immediately after addition of substrate to enzyme, the plate was transferred into a spectrophotometer held at room temperature. The fluorescence was recorded every 1.5 min for 15 min. The excitation wavelength was 360 nm (20 nm bandwidth), the emission wavelength was 440 nm (20 nm bandwidth), the optics position was bottom, the gain was extended, the light source was a xenon flash lamp, and the read speed was normal.
as §4, with “4)” for “5)”, “is at least from 0-6 min, so this time regime is used.” for “was 10-30 min.”
as §5

[3] = biological target: T1, ClbP; assay: ClbP cell lysate activity (inhibition) assay, fluorogenic substrate; format: biochemical; details: ClbP Lysate Inhibition Assay: IC50, E. coli ClbP+ lysozyme-EDTA lysates, 5 μM fluorogenic substrate, inhibitor 0-300 μM, 37° C., singlicate
Procedure: Cell Lysate Activity Assay
as §1, §2
1) The saturated overnight culture was centrifuged to create a firm pellet (3,200 g, 10 min, 4° C.). The supernatant was removed and then the pellet was resuspended in 30 mL sterile PBS.
2) The bacteria were centrifuged again (3,200 g, 10 min, 4° C.). The supernatant was removed, and the pellet was resuspended in sterile PBS buffer (3 mL) in each 8 tubes to make a tenfold concentrated bacterial solution.
3) A lysozyme-EDTA (LE) solution was made in ddH2O (0.05 mg/mL lysozyme, 0.25 M EDTA).
4) For each of the eight tubes, LE solution (3 mL) was mixed with concentrated bacterial solution (3 mL). This mixture was incubated at 37° C. for 30 min to generate the lysates.
5) The lysates (192 μL) were mixed with inhibitor (6 μL, final concentration was 300, 100, 33.3, 11.1, 3.7, 1.2, 0.4, or 0 μM). Fluorogenic substrate (2 μL, final concentration 5 μM) was immediately added across the plate to initiate the reaction. As a control, each plate contained Compound No. III in this dose response curve. The final concentration of bacterial lysates was fivefold concentrated compared to the original saturated overnight culture. Carryover from DMSO was 4% (v/v). All compounds were tested in singlicate.
as §3, with “6)” for “4)”
as §4, with “7)” for “5)”, “0-20” for “10-30”
as §5

Row | Compound | IC50 [1] [µM] | IC50 [2] [µM] | IC50 [3] [µM]
1 | CCCCCCCCCC(=O)N[C@H](CC(N)=O)C(=O)NCCc1ccccc1 [Compound CCLXVI] | < 100 | < 100 | < 100
2 | CC(=O)N[C@H](CC(N)=O)C(=O)NCCc1ccccc1 [Compound CCLXV] | > 300 | 100 to 300 | > 300
3 | CCCCCCCC(=O)N[C@@H](/C=C/C(=O)OCC)CC(N)=O [Compound CCLXXIII] | > 300 | 100 to 300 | > 300
4 | CCCCCCCC(=O)N[C@H](CC(N)=O)C(=O)NCCc1ccc(F)cc1 [Compound CCLXXIV] | < 100 | < 100 | < 100
5 | NC(=O)C[C@@H](NC(=O)CC1CCCCC1)C(=O)NCCc1ccccc1 [Compound CCLXXI] | 100 to 300 | < 100 | > 300
6 | CCCCCCCC(=O)N[C@H](CC(N)=O)C(=O)N(C)CCc1ccc(O)cc1 [Compound CCLXXVII] | < 100 | < 100 | < 100
7 | CCCCCCCC(=O)N[C@H](CC(N)=O)C(=O)N(CCc1ccc(O)cc1)C(C)C [Compound CCLXXVI] | > 300 | < 100 | < 100
8 | CCCCCC(=O)N[C@H](CC(N)=O)C(=O)NCCc1ccc(C(F)(F)F)cc1 [Compound CCLXXV] | > 300 | < 100 | > 300
9 | CCCCCCCC(=O)N[C@H](CC(N)=O)C(=O)C(=O)NCc1ccccc1 [Compound CCLXXXIII] | < 100 | < 100 | < 100
10 | O=C(C[C@@H](NC(=O)CCC1CCCCC1)C(=O)NCCc1ccc(O)c(O)c1)NO [Compound CCLXXXIV] | 100 to 300 | < 100 | 100 to 300
11 | CCCCCCCC(=O)N[C@H]1CC(=O)NC1(O)C(=O)NCc1ccccc1 (stereo partly drawn) [Compound CCLXXXIX] | 100 to 300 | < 100 | 100 to 300
12 | CCCCCCCC(=O)N[C@H](CN[C@@H](C)C(=O)OC)CC(N)=O [Compound CCLXXXI] | > 300 | 100 to 300 | > 300
13 | CCCCCCCC(=O)N[C@H](CC(=O)NOC)C(=O)NCCc1ccc(O)cc1 [Compound CCLXXXV] | 100 to 300 | < 100 | 100 to 300
14 | CCCCCCCC(=O)N[C@@H](CN[C@@H](C)C(=O)OC)CC(N)=O [Compound CCLXXX] | > 300 | 100 to 300 | > 300
15 | NC(=O)C[C@@H](NC(=O)CCCC1CCCCC1)C(=O)NCCc1ccccc1 [Compound CCLXX] | < 100 | < 100 | < 100
16 | NC(=O)C[C@@H](NC(=O)/C=C/CC1CCCC1)C(=O)NCCc1ccc(O)cc1 [Compound CCLX] | < 100 | < 100 | < 100
17 | NC(=O)C[C@@H](NC(=O)CCC1CCCC1)C(=O)NCCc1ccccc1 [Compound CCL] | < 100 | < 100 | < 100

Row | Compound | IC50 [1] [µM] | IC50 [2] [µM] | IC50 [3] [µM]
18 | CCCCCCCC(=O)N[C@H](CC(N)=O)C(=O)NCCc1ccncc1 [Compound CCVIII] | < 100 | < 100 | < 100
19 | CCCCCCCC(=O)N[C@H](CC(N)=O)c1nc2ccccc2[nH]1 [Compound CCVII] | > 300 | < 100 | > 300
20 | CCCCCCCC(=O)N[C@H](CC(N)=O)C(=O)NCCc1ccsc1 [Compound CCVI] | < 100 | < 100 | < 100
21 | CCCCCCCC(=O)N[C@H](CC(N)=O)C(=O)NCCc1ccccn1 [Compound CCV] | < 100 | < 100 | < 100
22 | CCCCCCCC(=O)N[C@H](CC(=O)NO)C(=O)NCCc1ccc(O)c(O)c1 [Compound CCXCIII] | < 100 | < 100 | < 100
23 | NC(=O)C[C@@H](NC(=O)CCCCC(F)(F)F)C(=O)NCCc1ccc(O)cc1 [Compound CCXCII] | < 100 | < 100 | < 100
24 | O=C(/C=C/C1CCCCC1)N[C@H](CC(=O)NO)C(=O)NCCc1ccc(O)cc1 [Compound CCXCIV] | < 100 | < 100 | < 100
25 | O=C(C[C@@H](NC(=O)CCCC1CCCC1)C(=O)NCCc1ccc(O)cc1)NO [Compound CCXCIX] | < 100 | < 100 | < 100
26 | CN(CCCCCC(=O)N[C@H](CC(N)=O)C(=O)NCCc1ccc(O)cc1)Cc1ccccc1 [Compound CCXCI] | < 100 | < 100 | < 100
27 | O=C(/C=C/CC1CCCC1)N[C@H](CC(=O)NO)C(=O)NCCc1ccc(O)cc1 [Compound CCXCVIII] | < 100 | < 100 | < 100
28 | O=C(/C=C/CC1CCCCC1)N[C@H](CC(=O)NO)C(=O)NCCc1ccc(O)cc1 [Compound CCXCVII] | < 100 | < 100 | < 100
29 | O=C(C[C@@H](NC(=O)CCCC1CCCCC1)C(=O)NCCc1ccc(O)cc1)NO [Compound CCXCVI] | < 100 | < 100 | < 100
30 | O=C(C[C@@H](NC(=O)CCC1CCCCC1)C(=O)NCCc1ccc(O)cc1)NO [Compound CCXCV] | < 100 | < 100 | < 100
31 | CCCCCCCC(=O)N[C@@H]1CC(=O)NC1(O)C(=O)NCCCC (stereo partly drawn) [Compound CCXC] | < 100 | < 100 | < 100
32 | CCCCCCCC(=O)N[C@H](CC(N)=O)C(=O)NCCCc1ccccc1 [Compound CCXIII] | < 100 | < 100 | < 100
33 | CCCCCCC(C)(C)C(=O)N[C@@H](CNCCc1ccccc1)CC(N)=O [Compound CCXII] | > 300 | 100 to 300 | > 300
34 | CCCCCCCC(N[C@H](CC(N)=O)C(=O)NCCc1ccccc1)C(F)(F)F (stereo partly drawn) [Compound CCXIV] | > 300 | < 100 | > 300
